Experimental data as given in patent publication US20050203029A1, “Agents for treating <I>flaviviridae</I>infections” (priority 2002, published 2005).
Peptide text beside a SMILES is read from it. * marks the point of attachment. Cbz = O=C(OCc1ccccc1)*

Assays:
[1] = system: BVDV; assay: Electron microscopy (TEM) of BVDV-infected MDBK cells and virus supernatants; type: cell-based, bovine viral diarrhea virus
[2] = system: BVDV CP7; assay: BVDV CP7 infection of MDBK cells (end point titration, RNase protection, immunofluorescence); type: cell-based, bovine viral diarrhea virus; conditions: 10 nM PI after infection, 30 hours
[3] = system: BVDV (CP7, NADL); assay: Western blot of pelleted BVDV virions with anti-BVDV core antibodies; type: cell-based, bovine viral diarrhea virus; conditions: for production of BVDV virions (pelleted virions): 24 or 48 hours of treatment; for core signal, mature and immature form of the BVDV core protein / quantity of BVDV virus as measured by the core signal: 48 hours of treatment; for quantity of BVDV virus as measured by the core signal: 150 μM
[4] = system: West Nile virus; assay: West Nile virus infection of BHK-21 cells (end point titration, RNase protection, immunofluorescence); type: cell-based, West Nile flavivirus; conditions: 10 nM PI after infection, 12 hours

In the case of `CC(C)C[C@@H](C=O)NC(=O)[C@H](CC(C)C)NC(=O)[C@H](CC(C)C)NC(=O)OCc1ccccc1` [MG132, N-carbobenzoxy-L-leucinyl-L-leucinyl-L-leucinal] (Cbz-Leu-Leu-Leu-aldehyde), the “number of virus particles detected in cellular vesicles vs mock” value ([1]; 10 μm MG132, 30 hours) is reported as “significantly smaller number of virus particles”, the “ratio of completely assembled to incompletely assembled virions” value ([1]; 10 μm MG132, 30 hours) is reported as “shifted significantly in favor of incompletely assembled virus particles” and the “morphology of secreted viruses vs wild-type viruses” value ([1]; supernatants of PI-treated vs mock-treated cells) is reported as “changed markedly”. The “reduction in the number of progeny viruses released” value (from here on “reduction in the number”) [2] was “several log steps”, the “production of BVDV virions (pelleted virions)” value [3] was “block the production of BVDV virions” and the “core signal, mature and immature form of the BVDV core protein” value [3] was “dose-dependent decrease”. For the same compound, the “quantity of BVDV virus as measured by the core signal” value [3] was 10% and the “reduction in the number” value [4] was “several log steps”.

In the case of `CC(=O)N[C@@H](CSC(=O)[C@]1([C@@H](O)C(C)C)NC(=O)[C@H](C)[C@@H]1O)C(=O)O` [lactacystin], the “reduction in the number” value [2] is reported as “slight”, the “reduction in the rate of RNA replication (factor)” value [2] is reported as “slight” and the “production of BVDV virions (pelleted virions)” value [3] is reported as “block the production of BVDV virions”. For the same compound, the “core signal, mature and immature form of the BVDV core protein” value [3] was “dose-dependent decrease”, the “quantity of BVDV virus as measured by the core signal” value [3] was 10% and the “reduction in the number” value [4] was “slight”. The “reduction in the rate of RNA replication (factor)” value [4] was “slight”.
